Results: patent publication US20250135016A1, “MOLECULAR LOGIC GATES FOR CONTROLLED MATERIAL DEGRADATION” (University of Washington, priority 2016, published 2025)
Several values for one entry are separate records, joined by “and”; a condition that tells them apart may be missing. Identical values can stand only once. Like-named read-outs stand apart in the source and are kept apart here.

How the values were obtained:
[1] = Multi-logic hydrogel treatment and confocal microscopy; type: physicochemical; conditions: three-region gel
Experimental: Hydrogels were formed sandwiched between an azide-functional glass slide and a Rain-X®-treated glass slide separated by two 0.005″ thick silicone spacers (McMaster-Carr). A precursor solution containing PEG-tetraBCN-FAM (Method S22, 2 mM) and the P crosslinker (Method S7, 4 mM) was injected between the silicone spacers (0.005 inches) and reacted for one hour. Subsequently, a precursor solution of PEG-tetraBCN-Cyanine5 (Method S22, 2 mM) and the R∨P crosslinker (Method S10, 4 mM) was injected between the FAM functionalized region and a silicone spacer and reacted for one hour. This was repeated on the other side of the FAM functionalized region with PEG-tetraBCN-AF568 (Method S22, 2 mM) and R∧P crosslinker (Method S13, 4 mM). Hydrogels were equilibrated and stored in PBS. […]
Hydrogels were imaged using fluorescent confocal microscopy. Three channels—one for each fluorophore—were simultaneously monitored. For visualization, fluorescence corresponding to AF568 (excitation 578 nm, emission 594-627 nm), FAM (excitation 515 nm, emission 520-569 nm), and Cyanine5 (excitation 646 nm, emission 663-675 nm) were false colored as red, green, and blue, respectively.

[2] = tested on: hS5 bone marrow-derived stromal cells; test: Hydrogel-encapsulated cell release studies; type: cell-based, human
Experimental: Four human bone marrow-derived stromal cell lines [hS5], including one non-fluorescent control and three each stably transfected to express a single fluorescent protein [mCherry, green fluorescent protein (GFP), or blue fluorescent protein (BFP)], were cultured at 37° C. in Roswell Park Memorial Institute medium 1640 (RPMI-1640, Corning) supplemented with 10% FBS and 1% PS.
Hydrogels were formed sandwiched between an azide-functional glass slide and a Rain-X®-treated glass slide separated by two 0.005″ thick silicone spacers (McMaster-Carr). A precursor solution containing PEG-tetraBCN (Method S22, 2 mM), the P crosslinker (Method S7, 4 mM), and hS5-GFP^+ (40×10^6 cells mL^−1) was injected between the silicone spacers and reacted for one hour. Subsequently, a precursor solution of PEG-tetraBCN (2 mM), the R∨P crosslinker (Method S10, 4 mM), and hS5-BFP^+ (40×10^6 cells mL^−1) was injected between the hS5-GFP^+ encapsulated region and a silicone spacer. […]
Following each degradative step, cells that remained encapsulated in the intact gel were imaged using fluorescent confocal microscopy. Three channels—one for each fluorescent protein—were simultaneously monitored. For visualization, fluorescence corresponding to mCherry (excitation 587 nm, emission 626-703 nm), GFP (excitation 489 nm, emission 499-570 nm), and BFP (excitation 405 nm, emission 413-494 nm) were false colored as red, green, and blue, respectively. […]
Gels were degraded and the viability of the released cells was assessed. […]
Cells released from the gels and stained with the Live/Dead® assay were imaged on a Nikon Eclipse TE2000-U microscope using filter cubes corresponding to both live (excitation 480/40 nm filter, emission 535/50 nm filter) and dead (excitation 560/20 nm filter, emission 630/60 nm filter) staining. Viability was determined for each treatment by standard image analysis. […]

[3] = all eight input combinations of reductant, MMP enzyme and light; endpoint supernatant fluorescence
[4] = Experimental: Azide functionalized glass slides were synthesized as reported in previous works. […] PEG3500-diazide (37.5 μL, 40 mM) was then added, and the resulting solution was rapidly mixed, centrifuged, and then pipetted (25 μL) onto the azide functionalized glass slide. The gels were allowed to gel to completion for 1 hr, then covered with a RainX treated glass slide, and PBS (1×) was added to swell and rinse the gel overnight at room temperature, protected from light. The following morning, two of the gels (gel 3 and 4) was exposed to 365 nm light at 20 mW/cm^2 for 10 minutes with a hatched square (100 μm) chrome photomask. Following the light treatment, gel 3 was returned to PBS (1×) and protected from light. Gels 2 and 4 were placed in a solution of Dithiothreitol (DTT, 1 mM) for 4 hours. Gels 2 and 4 were then transferred to PBS (1×) and protected from light for 30 mins. Gel 1 remained in PBS and protected from light the entire time. The resulting fluorescence of these gels were imaged using a confocal scanning microscope at 488 nm.
[5] = In situ oscillatory rheology of hydrogel formation with pretreated E∧P crosslinker; type: physicochemical
Experimental: Reaction products were characterized using matrix-assisted laser desorption/ionization time-of-flight mass spectrometry (MALDI-TOF). […] To further investigate, the enzyme AND photo linker (E∧P) was pretreated with different combinations of enzyme and light, added to a stoichiometrically defined amount of PEG-tetraBCN, and characterized by in situ oscillatory rheology to monitor evolution of material properties.
Oscillatory rheology was performed on an Anton Paar MCR301 rheometer equipped with a cone and plate geometry (25 mm diameter, 1° cone) at 25° C. and 25 Hz with a 1% strain. A solution of PEG-tetraBCN (3 mM, Method S22) and the E∧P crosslinker (6 mM, Method S12) in MMP buffer was reacted in situ, while G′ and G″ were measured as a function of time over the course of two hours. Peptide crosslinkers were pretreated with MMP and/or light as described in Method S24 in experimental triplicate. Hydrogels with similar stiffnesses formed when the E∧P crosslinker was untreated (G′=1660±170), exposed to just light (G′=1580±130), or exposed to just enzyme (G′=1540±110).

Question: With N3-oNB-RGGRK(N3)—NH2 [P] as the substance, how does the “Response to subsequent reducing treatment” value ([1]; BME 0.25 mM, 45 minutes, after masked light) read?
Answer: fully intact

Question: And the “Response to masked UV light” value ([1]; λ=365 nm, 10 minute exposure, slitted photomask)?
Answer: degradation

Question: And the “Gel degradation for viability studies” value ([2]; R gels BME 0.25 mM 45 minutes, P gels UV 10 minutes, E gels MMP-8 0.20 nM 60 minutes)?
Answer: complete hydrogel degradation

Question: And the “Response to subsequent reducing treatment” value ([2]; cell-laden tri-color gel, BME 0.25 mM, 37° C., 45 minutes)?
Answer: fully intact

Question: What about the “Response to masked UV light” value ([2]; cell-laden tri-color gel, λ=365 nm, 10 minute exposure, photomask) of the same substance?
Answer: degradation

Question: What about the Hydrogel degradation response [3] of the same substance?
Answer: degrading only when the programmed cue was present

Question: For “FAM-GRCG-PL-GCGRK(CO(CH2)3N3)—NH2 [FAM-Photolabile-AND-Reducible Pendant]”, which “Gel fluorescence (FAM release)” value ([4]; Gel 1, control, PBS only) is on record?
Answer: no visible loss in fluorescence

Question: And the “Gel fluorescence (FAM release)” value ([4]; Gel 2, DTT only (1 mM, 4 hours))?
Answer: no visible loss in fluorescence

Question: What about the “Gel fluorescence (FAM release)” value ([4]; Gel 3, photomasked light only (365 nm, 20 mW/cm^2, 10 minutes)) of the same substance?
Answer: no visible loss in fluorescence

Question: And the “Gel fluorescence (FAM release)” value ([4]; Gel 4, photomasked light and DTT)?
Answer: release in only the exposed areas

Question: Which “Final storage modulus G′” value ([5]; E∧P linker pretreated with both enzyme and light, did not form a gel) does the source give for “HCC(CH2)2CO-RGK(CO(CH2)3N3)GPQGIWGQGK(oNB-N3)RK(CO(CH2)3N3)—NH2 [E∧P]” here?
Answer: 200±30 Pa

Question: And the “Final storage modulus G′” value ([5]; E∧P linker pretreated with enzyme (MMP) only)?
Answer: 1580±130 Pa and 1540±110 Pa

Question: And the “Final storage modulus G′” value ([5]; E∧P linker pretreated with light only)?
Answer: 1540±110 Pa and 1580±130 Pa

Question: And the “Final storage modulus G′” value ([5]; E∧P linker untreated, reacted with PEG-tetraBCN)?
Answer: 1660±170 Pa

Question: And the “Final loss modulus G″” value ([5]; all samples)?
Answer: ~50 Pa
